Experiments:
[1] = tested on: Mtb H37Rv; test: Lung mycobacterial load in Mtb-challenged mice (CFU counting); type: in vivo, Mycobacterium tuberculosis; details: Booster co-loaded with ETH in pβCD
[2] = tested on: BMDM; test: Apoptosis/necrosis assay (Annexin V and DNA intercalating dye); type: cell-based, murine; details: 24 hours incubation
[3] = Phase solubility study, ETH; details: 1:1 stoichiometry assumed, from phase solubility diagram
[4] = Phase solubility study, Booster; details: 1:1 stoichiometry assumed; BDM43266 per FIG. 2B

Row | Compound | boosting efficacy on ETH [1] | Annexin V / DNA intercalating dye staining [2] | K1:1 (binding constant) in the case of ETH [3] | K1:1 (binding constant) in the case of Booster [4]
1 | O=C(CCCC(F)(F)F)N1CCC(c2nc(-c3nccs3)no2)CC1 [BDM41906] | No difference was observed concerning the boosting efficacy between BDM41906 and BDM43266 | – | – | –
2 | CN[C@@H]1C[C@H]2O[C@@](C)([C@@H]1OC)n1c3ccccc3c3c4c(c5c6ccccc6n2c5c31)C(=O)NC4 [staurosporine] | – | late apoptotic, double positive cells | – | –
3 | OC[C@H]1O[C@@H]2O[C@H]3[C@H](O)[C@@H](O)[C@@H](O[C@H]4[C@H](O)[C@@H](O)[C@@H](O[C@H]5[C@H](O)[C@@H](O)[C@@H](O[C@H]6[C@H](O)[C@@H](O)[C@@H](O[C@H]7[C@H](O)[C@@H](O)[C@@H](O[C@H]1[C@H](O)[C@H]2O)O[C@@H]7CO)O[C@@H]6CO)O[C@@H]5CO)O[C@@H]4CO)O[C@@H]3CO [αCD, α-cyclodextrin] | – | – | 24 | 100
4 | OC[C@H]1O[C@@H]2O[C@H]3[C@H](O)[C@@H](O)[C@@H](O[C@H]4[C@H](O)[C@@H](O)[C@@H](O[C@H]5[C@H](O)[C@@H](O)[C@@H](O[C@H]6[C@H](O)[C@@H](O)[C@@H](O[C@H]7[C@H](O)[C@@H](O)[C@@H](O[C@H]8[C@H](O)[C@@H](O)[C@@H](O[C@H]1[C@H](O)[C@H]2O)O[C@@H]8CO)O[C@@H]7CO)O[C@@H]6CO)O[C@@H]5CO)O[C@@H]4CO)O[C@@H]3CO [βCD, β-Cyclodextrin] | – | – | 100 | 514
5 | OC[C@H]1O[C@@H]2O[C@H]3[C@H](O)[C@@H](O)[C@@H](O[C@H]4[C@H](O)[C@@H](O)[C@@H](O[C@H]5[C@H](O)[C@@H](O)[C@@H](O[C@H]6[C@H](O)[C@@H](O)[C@@H](O[C@H]7[C@H](O)[C@@H](O)[C@@H](O[C@H]8[C@H](O)[C@@H](O)[C@@H](O[C@H]9[C@H](O)[C@@H](O)[C@@H](O[C@H]1[C@H](O)[C@H]2O)O[C@@H]9CO)O[C@@H]8CO)O[C@@H]7CO)O[C@@H]6CO)O[C@@H]5CO)O[C@@H]4CO)O[C@@H]3CO [γCD, γ-cyclodextrin] | – | – | 47 | 256
